Assay results taken from paper PMC9996372, “Aim18p and Aim46p are chalcone isomerase domain–containing mitochondrial hemoproteins in Saccharomyces cerevisiae” (The Journal of Biological Chemistry, 2023).

What was measured:
AtFAP1-Nd45-WT = molecular target: T1, AtFAP1-Nd45-WT (Arabidopsis thaliana, UniProt Q9M1X2); settings: 5 μM protein, 50 μM fatty acid, 100 mM Hepes pH 7.5, 150 mM NaCl, 1 h at RT; versus DMSO
T1 construct: gene FAP1

AtCHI1-FL-WT = molecular target: T2, AtCHI1-FL-WT (Arabidopsis thaliana, UniProt P41088); experiment: chalcone isomerase assay, depletion of A381; format: biochemical; settings: 10 nM protein, 200 μM naringenin chalcone, 50 mM Hepes pH 7.5, 150 mM NaCl, 5% EtOH; product naringenin
T2 construct: gene CHI1; full-length; N-terminal 8X-His tag
T2 sequence (P41088 1-246): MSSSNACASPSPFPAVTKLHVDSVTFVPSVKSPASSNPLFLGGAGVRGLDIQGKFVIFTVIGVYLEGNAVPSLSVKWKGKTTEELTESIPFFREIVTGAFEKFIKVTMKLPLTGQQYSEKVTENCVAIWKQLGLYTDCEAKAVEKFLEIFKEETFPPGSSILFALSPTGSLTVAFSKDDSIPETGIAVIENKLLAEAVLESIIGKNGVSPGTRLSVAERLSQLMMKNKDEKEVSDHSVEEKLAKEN

T1 sequence (Q9M1X2 46-279): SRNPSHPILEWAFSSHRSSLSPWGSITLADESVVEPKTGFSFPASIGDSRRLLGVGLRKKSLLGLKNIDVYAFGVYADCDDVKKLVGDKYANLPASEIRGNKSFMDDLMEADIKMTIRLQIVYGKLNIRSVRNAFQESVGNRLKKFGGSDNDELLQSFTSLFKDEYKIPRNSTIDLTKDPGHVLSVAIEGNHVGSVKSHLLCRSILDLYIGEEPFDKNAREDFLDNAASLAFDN

SMILES | ΔTm (AtFAP1-Nd45-WT) | chalcone isomerase assay, depletion of A381 (AtCHI1-FL-WT)
CC/C=C\C/C=C\C/C=C\CCCCCCCC(=O)O [Linolenic acid] | AtFAP1-Nd45-WT was the only protein stabilized by the addition of linolenic acid | –
O=C(/C=C/c1ccc(O)cc1)c1c(O)cc(O)cc1O [naringenin chalcone] | – | Only AtCHI-WT rapidly converted naringenin chalcone to naringenin
